In data set [1] the target is T1, PODANSg2158 (Podospora anserina, UniProt B2AM55).
T1 sequence (B2AM55 1-430): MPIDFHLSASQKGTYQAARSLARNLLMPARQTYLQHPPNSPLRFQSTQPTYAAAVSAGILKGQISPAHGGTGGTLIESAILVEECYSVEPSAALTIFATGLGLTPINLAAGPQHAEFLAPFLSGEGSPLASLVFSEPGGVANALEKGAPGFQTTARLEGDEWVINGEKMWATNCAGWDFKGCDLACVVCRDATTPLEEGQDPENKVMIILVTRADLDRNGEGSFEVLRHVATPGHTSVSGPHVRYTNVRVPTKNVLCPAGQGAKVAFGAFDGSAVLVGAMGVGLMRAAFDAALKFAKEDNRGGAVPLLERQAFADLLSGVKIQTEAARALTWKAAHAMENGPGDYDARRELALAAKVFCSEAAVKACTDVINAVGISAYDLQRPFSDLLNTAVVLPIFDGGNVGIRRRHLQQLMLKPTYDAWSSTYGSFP
Description: X-ray crystal structure, […] Å. It counts as binding. Particulars: wild-type enzyme; FAD in each of four subunits; pH 6 crystals.

Data set [2] addresses Asp402 (UniProt position 402, CYPLFDGGNIG). Description: kinetics. The following applies: free enzyme; substrate nitroethane; cited from earlier work.

For the molecule `Cc1cc2nc3c(=O)[nH]c(=O)nc-3n(C[C@H](O)[C@H](O)[C@H](O)COP(=O)(O)OP(=O)(O)OC[C@H]3O[C@@H](n4cnc5c(N)ncnc54)[C@H](O)[C@@H]3O)c2cc1C` [FAD], in data set [1], the “X-ray crystal structure, 2.0 Å” value is recorded as “FAD could be clearly identified in each of the subunits”.

The term pKa denotes the pH at which an ionisable group is half protonated. Turning to “Nitroalkane oxidase (NAO) (Fusarium oxysporum)”, the pKa in data set [2] is reported as 6.9.

Source of the values: article PMC2889615 (Biochemistry, 2010).
